Target: T1, Human recombinant PTP-1B (Homo sapiens, UniProt P18031)
T1 construct: Human recombinant PTP-1B, containing amino acids 1-321, fused to GST enzyme; GST (glutathione S-transferase)
T1 sequence (P18031 1-321): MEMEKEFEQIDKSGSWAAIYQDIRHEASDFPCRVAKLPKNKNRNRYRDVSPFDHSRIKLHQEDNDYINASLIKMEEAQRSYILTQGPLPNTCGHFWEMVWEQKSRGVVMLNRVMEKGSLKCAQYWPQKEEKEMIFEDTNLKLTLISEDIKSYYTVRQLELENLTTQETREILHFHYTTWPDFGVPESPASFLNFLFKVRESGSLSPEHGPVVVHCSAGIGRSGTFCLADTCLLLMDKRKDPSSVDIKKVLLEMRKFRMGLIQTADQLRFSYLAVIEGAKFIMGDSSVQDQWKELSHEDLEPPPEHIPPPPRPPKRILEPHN
Experiment: Assay for PTP-1B Activity (pNPP substrate)
Assay type: biochemical
Conditions: human recombinant PTP-1B (1-321) GST fusion, 2 mM pNPP, pH 7.4, 30° C., 20 min; read-out: Activity Code (IC50 range)
From the text: The activity of the compounds as modulators of protein tyrosine phosphatase, including PTP-1B, may be measured in standard assays (see, e.g., Examples 41 and 42). Briefly, the assay described herein employs human recombinant PTP-1B and a pNPP substrate in a rescue assay.
Assay for PTP-1B Activity
Enzyme: Human recombinant PTP-1B, containing amino acids 1-321, fused to GST enzyme (glutathione S-transferase) purified by affinity chromatography (Huyer et al, 1997, J. Biol. Chem., 272, 843-852).
pNPP: p-Nitrophenyl Phosphate (Calbiochem)
Assay Buffer: 50 mM HEPES (pH 7.4), 100 mM NaCl, 2 mM EDTA, 3 mM DTT
(5×) pNPP substrate: 10 mM pNPP in assay buffer
Enzyme: 1 mg/ml PTP1B (1-321), dilute 1:200 in assay buffer
Assay buffer: 50 mM HEPES (pH 7.4), 100 mM NaCl, 2 mM EDTA, 3 mM DTT
Enzyme dilution buffer: 50 mM HEPES (pH 7.4), 100 mM NaCl, 2 mM EDTA, 3 mM DTT
Substrate 198 mM p-Nitrophenyl Phosphate (pNPP) store at 4° C.
The assay was carried out at 30° C. in 96 well plates. The reaction mixture in 60 ul contained 50 mM HEPES (pH 7.4), 100 mM NaCl, 2 mM EDTA, 3 mM DTT, and 2 mM p-Nitrophenyl Phosphate (pNPP). 5 ul of the test compound (inhibitor) dissolved in DMSO or DMSO alone for control was added to each well and the plate was mixed for 2 min. The reaction was initiated by adding 20 ul of diluted PTP1B (5 ng/ul in 50 mM HEPES (pH 7.4), 100 mM NaCl, 2 mM EDTA, 3 mM DTT). After 20 min at 30° C., the enzyme reaction was terminated by adding 100 ul of 2 M K2CO3 to each well. The phosphatase activity was detected by using Victor II plate reader (Wallac) with absorbance detection at 405 nm. All the assays were done at least in duplicate. The initial rate of pNP is plotted against the concentration of inhibitor.

| SMILES | IC50 [nM] |
| --- | --- |
| CCOC(=O)n1cc(-c2ccc(S(C)(=O)=O)cc2)n(Cc2ccc(C(F)(F)P(=O)(O)O)c(Br)c2)c1=O [Compound 1, 3-[3-Bromo-4-(difluoro-phosphono-methyl)-benzyl]-4-(4-methanesulfonyl-phenyl)-2-oxo-2,3-dihydro-imidazole-1-carboxylic acid ethyl ester] | 100 to 249 |
| O=C(O)c1ccc(-c2cn(Cc3ccccc3)c(=O)n2Cc2ccc(C(F)(F)P(=O)(O)O)c(Br)c2)cc1 [Compound 2, 4-{1-Benzyl-3-[3-bromo-4-(difluoro-phosphono-methyl)-benzyl]-2-oxo-2,3-dihydro-1H-imidazol-4-yl}-benzoic acid] | 250 to 2500 |
| CS(=O)(=O)c1ccc(-c2c[nH]c(=O)n2Cc2ccc(C(F)(F)P(=O)(O)O)c(Br)c2)cc1 [Compound 3, ({2-Bromo-4-[5-(4-methanesulfonyl-phenyl)-2-oxo-2,3-dihydro-imidazol-1-ylmethyl]-phenyl}-difluoro-methyl)-phosphonic acid] | 250 to 2500 |
| Cn1cc(-c2ccc(S(C)(=O)=O)cc2)n(Cc2ccc(C(F)(F)P(=O)(O)O)c(Br)c2)c1=O [Compound 4, ({2-Bromo-4-[5-(4-methanesulfonyl-phenyl)-3-methyl-2-oxo-2,3-dihydro-imidazol-1-ylmethyl]-phenyl}-difluoro-methyl)-phosphonic acid] | 100 to 249 |
| COC(=O)c1ccc(-c2cn(Cc3ccccc3)c(=O)n2Cc2ccc(C(F)(F)P(=O)(O)O)c(Br)c2)cc1 [Compound 6, 4-{1-Benzyl-3-[3-bromo-4-(difluoro-phosphono-methyl)-benzyl]-2-oxo-2,3-dihydro-1H-imidazol-4-yl}-benzoic acid methyl ester] | 100 to 249 |
| O=C(O)c1ccc(-c2c[nH]c(=O)n2Cc2ccc(C(F)(F)P(=O)(O)O)c(Br)c2)cc1 [Compound 7, 4-{3-[3-Bromo-4-(difluoro-phosphono-methyl)-benzyl]-2-oxo-2,3-dihydro-1H-imidazol-4-yl}-benzoic acid] | 250 to 2500 |
| O=C(O)c1ccc(-c2cn(Cc3ccccc3)c(=O)n2Cc2ccc(C(F)(F)P(=O)(O)O)c(Cl)c2)cc1 [Compound 9, 4-{1-Benzyl-3-[3-chloro-4-(difluoro-phosphono-methyl)-benzyl]-2-oxo-2,3-dihydro-1H-imidazol-4-yl}-benzoic acid] | 250 to 2500 |
| COC(=O)c1ccc(-c2cn(Cc3ccccc3)c(=O)n2Cc2ccc(C(F)(F)P(=O)(O)O)c(Cl)c2)cc1 [Compound 10, 4-{1-Benzyl-3-[3-chloro-4-(difluoro-phosphono-methyl)-benzyl]-2-oxo-2,3-dihydro-1H-imidazol-4-yl}-benzoic acid methyl ester] | 250 to 2500 |
| COC(=O)c1ccc(-c2cn(Cc3ccc(F)cc3)c(=O)n2Cc2ccc(C(F)(F)P(=O)(O)O)c(Br)c2)cc1 [Compound 11, 4-[3-[3-Bromo-4-(difluoro-phosphono-methyl)-benzyl]-1-(4-fluoro-benzyl)-2-oxo-2,3-dihydro-1H-imidazol-4-yl]-benzoic acid methyl ester] | 100 to 249 |
| COC(=O)c1ccc(-c2cn(CCc3ccccc3)c(=O)n2Cc2ccc(C(F)(F)P(=O)(O)O)c(Br)c2)cc1 [Compound 12, 4-{3-[3-Bromo-4-(difluoro-phosphono-methyl)-benzyl]-2-oxo-1-phenethyl-2,3-dihydro-1H-imidazol-4-yl}-benzoic acid methyl ester] | 250 to 2500 |

Other lines, results leading:

| IC50 [nM] | SMILES |
| --- | --- |
| 250 to 2500 | O=C(O)c1ccc(-c2cn(Cc3ccc(F)cc3)c(=O)n2Cc2ccc(C(F)(F)P(=O)(O)O)c(Br)c2)cc1 [Compound 13, 4-[3-[3-Bromo-4-(difluoro-phosphono-methyl)-benzyl]-1-(4-fluoro-benzyl)-2-oxo-2,3-dihydro-1H-imidazol-4-yl]-benzoic acid] |
| 250 to 2500 | O=C(O)c1ccc(-c2cn(CCc3ccccc3)c(=O)n2Cc2ccc(C(F)(F)P(=O)(O)O)c(Br)c2)cc1 [Compound 14, 4-{3-[3-Bromo-4-(difluoro-phosphono-methyl)-benzyl]-2-oxo-1-phenethyl-2,3-dihydro-1H-imidazol-4-yl}-benzoic acid] |
| 100 to 249 | COC(=O)c1ccc(-c2cn(Cc3ccc(C#N)cc3)c(=O)n2Cc2ccc(C(F)(F)P(=O)(O)O)c(Br)c2)cc1 [Compound 15, 4-[3-[3-Bromo-4-(difluoro-phosphono-methyl)-benzyl]-1-(4-cyano-benzyl)-2-oxo-2,3-dihydro-1H-imidazol-4-yl]-benzoic acid methyl ester] |
| 250 to 2500 | CCOC(=O)c1ccc(-c2cn(Cc3ccccc3)c(=O)n2Cc2ccc(C(F)(F)P(=O)(O)O)c(Br)c2)cc1 [Compound 16, 4-{1-Benzyl-3-[3-bromo-4-(difluoro-phosphono-methyl)-benzyl]-2-oxo-2,3-dihydro-1H-imidazol-4-yl}-benzoic acid ethyl ester] |
| < 99 | CS(=O)(=O)c1ccc(-c2cn(Cc3ccccc3)c(=O)n2Cc2ccc(C(F)(F)P(=O)(O)O)c(Br)c2)cc1 [Compound 17, ({4-[3-Benzyl-5-(4-methanesulfonyl-phenyl)-2-oxo-2,3-dihydro-imidazol-1-ylmethyl]-2-bromo-phenyl}-difluoro-methyl)-phosphonic acid] |
| 100 to 249 | N#Cc1ccc(-c2cn(Cc3ccccc3)c(=O)n2Cc2ccc(C(F)(F)P(=O)(O)O)c(Br)c2)cc1 [Compound 20, ({4-[3-Benzyl-5-(4-cyano-phenyl)-2-oxo-2,3-dihydro-imidazol-1-ylmethyl]-2-bromo-phenyl}-difluoro-methyl)-phosphonic acid] |
| 100 to 249 | CS(=O)(=O)c1ccc(-c2cn(C3CC3)c(=O)n2Cc2ccc(C(F)(F)P(=O)(O)O)c(Br)c2)cc1 [Compound 21, ({2-Bromo-4-[3-cyclopropyl-5-(4-methanesulfonyl-phenyl)-2-oxo-2,3-dihydro-imidazol-1-ylmethyl]-phenyl}-difluoro-methyl)-phosphonic acid] |
| 100 to 249 | CS(=O)(=O)c1ccc(-c2cn(Cc3cccc(F)c3)c(=O)n2Cc2ccc(C(F)(F)P(=O)(O)O)c(Br)c2)cc1 [Compound 22, ({2-Bromo-4-[3-(3-fluoro-benzyl)-5-(4-methanesulfonyl-phenyl)-2-oxo-2,3-dihydro-imidazol-1-ylmethyl]-phenyl}-difluoro-methyl)-phosphonic acid] |
| < 99 | COC(=O)c1ccc(-c2cn(Cc3cc(OC)cc(OC)c3)c(=O)n2Cc2ccc(C(F)(F)P(=O)(O)O)c(Br)c2)cc1 [Compound 23, 4-[3-[3-Bromo-4-(difluoro-phosphono-methyl)-benzyl]-1-(3,5-dimethoxy-benzyl)-2-oxo-2,3-dihydro-1H-imidazol-4-yl]-benzoic acid methyl ester] |
| 100 to 249 | COC(=O)c1ccc(-c2cn(C3CC3)c(=O)n2Cc2ccc(C(F)(F)P(=O)(O)O)c(Br)c2)cc1 [Compound 24, 4-{3-[3-Bromo-4-(difluoro-phosphono-methyl)-benzyl]-1-cyclopropyl-2-oxo-2,3-dihydro-1H-imidazol-4-yl}-benzoic acid methyl ester] |
| 100 to 249 | COC(=O)c1ccc(-c2cn(Cc3ccccn3)c(=O)n2Cc2ccc(C(F)(F)P(=O)(O)O)c(Br)c2)cc1 [Compound 25, 4-{3-[3-Bromo-4-(difluoro-phosphono-methyl)-benzyl]-2-oxo-1-pyridin-2-ylmethyl-2,3-dihydro-1H-imidazol-4-yl}-benzoic acid methyl ester] |
| 100 to 249 | O=c1n(Cc2ccccc2)cc(-c2ccc(Cl)cc2)n1Cc1ccc(C(F)(F)P(=O)(O)O)c(Br)c1 [Compound 26, ({4-[3-Benzyl-5-(4-chloro-phenyl)-2-oxo-2,3-dihydro-imidazol-1-ylmethyl]-2-bromo-phenyl}-difluoro-methyl)-phosphonic acid] |
| 100 to 249 | NC(=O)c1ccc(-c2cn(Cc3ccccc3)c(=O)n2Cc2ccc(C(F)(F)P(=O)(O)O)c(Br)c2)cc1 [Compound 27, ({4-[3-Benzyl-5-(4-carbamoyl-phenyl)-2-oxo-2,3-dihydro-imidazol-1-ylmethyl]-2-bromo-phenyl}-difluoro-methyl)-phosphonic acid] |

Reference: patent US20080070867A1, “2-Imidazolone and 2-Imidazolidinone Heterocyclic Inhibitors of Tyrosine Phosphatases” (Metabasis Therapeutics, Inc., priority 2005, published 2008)
